Results on two compounds are retold here after paper PMC9154793, “Design, synthesis, and biological evaluation of triazole-pyrimidine-methylbenzonitrile derivatives as dual A2A/A2B adenosine receptor antagonists” (Journal of Enzyme Inhibition and Medicinal Chemistry, 2022).

For one data set, the system named is PBMCs. Nature of the data set: T-cell activation assay (IL-2 production in PBMCs, NECA-suppressed, anti-CD3/anti-CD28). The format is cell-based. The note with it: 10, 100, 1000 nM antagonist with 1000 nM NECA; ELISA after 48 h; Figure 3. The protocol:
The effector functions of T cells that express A2 ARs can be evaluated by measuring specific cytokine production[4]^,[9]^,[38]. In this study, the efficiencies of selected antagonists on IL-2 production (T cell activation) were examined. […] However, when the antagonist was added, the concentration of IL-2 was restored, indicating the inhibition effect of NECA was blocked.
Figure 3. The efficiencies of selected compounds for IL-2 production. The efficiencies of selected antagonists on T-cell activation at 10 nM, 100 nM, and 1000 nM were tested in the presence or absence of 1000 nM NECA. The DMSO control was tested in the absence of both antagonists and NECA. The NECA control was tested without antagonists in the presence of 1000 nM NECA.
Cryopreserved PBMCs (Allcells) were thawed and recovered in RPMI1640 medium overnight before being used. And compounds to be tested were diluted with DMSO to 100 folds of working concentrations. Then PBMCs were added to 96-well U bottom plate (2.5 × 10^5 cells per well). To the cells, 2 μl of NECA and 2 μl of each diluted compound (a final concentration of DMSO is 2%) were added. Then, cells were incubated at 37 °C under 5% CO2 for 1 h. Add 100 μl anti-CD3 (2 μg/ml) and anti-CD28 antibody (2 μg/ml) to each well and cells were cultured for 48 h. After 48 h, supernatants were collected and IL-2 concentration was detected by ELISA.
A general note: ELISA stands for enzyme-linked immunosorbent assay.

Data set [1] is described as follows: Metabolic stability in rat liver microsomes. In kind it is in vitro ADME, Sprague–Dawley rats. The note with it: for remaining at 10 min, 0.49 µM / remaining at 20 min, 0.49 µM / remaining at 0.5 h, 0.49 µM / remaining at 40 min, 0.49 µM / remaining at 50 min, 0.49 µM / remaining at 1 h, 0.49 µM / half-life at 0.49 µM: male, Sprague-Dawley, pooled rat liver microsomes; for remaining at 10 min, 0.49 µM / remaining at 20 min, 0.49 µM / remaining at 0.5 h, 0.49 µM / remaining at 40 min, 0.49 µM / remaining at 50 min, 0.49 µM / remaining at 1 h, 0.49 µM / CLint(liver) Rat: rat liver microsomes; for remaining at 0.5 h, 0.49 µM: 30 min; for remaining at 1 h, 0.49 µM: 60 min, read-out: Remaining (%, T = 60min) Rat; for half-life at 0.49 µM: rat, read-out: T1/2 Rat. The protocol: The metabolic stability is an important focus for further compound optimisation. Compounds 7f, 7i, and AB928 were chosen to evaluate the stability in rat liver microsomes and human liver microsomes. For the microsomal metabolic experiment, 7-ethoxycoumarin (7-EC) was used as a control. As shown in Table 4 (see Supporting information for raw data), the CLint(liver) of 7-EC in rats and humans was 10.0 and 9.0 ml/min/g liver, respectively, indicating the experimental test system was reliable.
Metabolic stabilities of compounds 7f, 7i, and AB928 in liver microsomes were studied with pooled human (male) liver microsomes solution (20 mg/ml) and male Sprague–Dawley rats pooled liver microsomes solution (20 mg/ml) purchased from Research Institute for Liver Diseases (Shanghai) Co. Ltd. Both liver microsomes solutions (140 μl) were diluted by 3948 μl of water and 280 μl of phosphate buffered saline. The assay procedure: 640 μl of diluted liver microsomes solution was added to a solution of compound working solution (16 μl, 25 μM in DMSO) and the mixed solution was incubated at 37 °C for 5 min. Then 160 μl of NADPH generating system was added and take out 100 μl from the mixed solution was added 200 μl of acetonitrile solution to stop the reaction at the set incubation time (0 min, 10 min, 20 min, 30 min, 40 min, 50 min, and 60 min). All stopped reaction solutions were vortex mixed (3 min) and centrifuged (10,000 rpm, 4 °C for 10 min). Then 50 μl of the supernatant was analysed by UPLC-MS/MS system (details of the analytical method see Supporting information). […]
8. Metabolic stability in human and rat liver microsomes
Metabolic stabilities of compounds 7f, 7i and AB928 in liver microsomes were studied with pooled human (male) liver microsomes solution (20 mg/mL) and male Sprague - Dawley rats pooled liver microsomes solution (20 mg/mL) purchased from Research Institute for Liver Diseases (Shanghai) Co. Ltd. Both liver microsomes solutions (140 μL) were diluted by 3948 μL of water and 280 μL of phosphate buffered saline. The assay procedure: 640 μL of diluted liver microsomes solution was added to a solution of compound working solution (16 μL, 25 μM in DMSO) and the mixed solution was […]
(1 picture or pasted object on this page, not shown here) […]
incubated at 37 ℃ for 5 min. Then 160 μL of NADPH generating system was added and take out 100 μL from the mixed solution was added 200 μL of acetonitrile solution to stop the reaction at the set incubation time (0 min, 10 min, 20 min, 30 min, 40 min, 50 min, and 60 min). All stopped reaction solutions were vortex mixed (3 min) and centrifuged (10000 rpm, 4 ℃ for 10 min). Then 50 μL of the supernatant was analyzed […]
8.2 Chromatography and mass spectrometry conditions
UPLC was performed using an […] UPLC system (Waters, Milford, MA, […]
USA). Separation was achieved on a Waters BEH C18 column(100 mm × 2.1 mm， 1.7 μm) at 40 ℃. The injection volume of the sample solution was 5 μL. The mobile phase consisted of water (0.1% formic acid and ammonium acetate) and acetonitrile solution (20:80, v/v) at a flow rate of 0.4 mL/min within a running time of 6 min. Mass spectrometric analysis was performed on a Waters Xevo TQ-S triple quadrupole instrument using electrospray ionization in positive mode. Quantification was performed using multiple reaction monitoring (MRM) mode to monitor precursor-product ion transitions (Table S1).
Table S1. Conditions of MRM Detection. […]
Table S2. Raw data of metabolic stability in human and rat liver microsomes. […]
(min) Hum Rat Hum Rat Hum Rat Hum Rat
9. Analytical method of pharmacokinetics assay
Animal experiments were performed according to the institutional ethical guidelines on animal care and approved by the Institute Animal Care and Use Committee at Binzhou […]
Female Bal b/c mice (sourced from Jinan Pengyue Experimental Animal Breeding […]
On the technique in general: Liver microsomes are a subcellular fraction often used to study metabolism.

In another data set the target is T1, human A2B AR (Homo sapiens, UniProt P29275).
T1 sequence (P29275 1-332): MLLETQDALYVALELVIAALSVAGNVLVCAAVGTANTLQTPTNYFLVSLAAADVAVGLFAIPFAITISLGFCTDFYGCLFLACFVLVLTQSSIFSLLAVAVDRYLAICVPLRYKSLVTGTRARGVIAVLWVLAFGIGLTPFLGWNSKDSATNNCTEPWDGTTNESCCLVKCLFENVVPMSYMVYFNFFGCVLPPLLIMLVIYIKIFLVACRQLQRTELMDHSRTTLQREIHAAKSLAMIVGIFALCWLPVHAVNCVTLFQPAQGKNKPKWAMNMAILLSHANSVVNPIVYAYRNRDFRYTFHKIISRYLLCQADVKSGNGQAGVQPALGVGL
Nature of the data set: cAMP functional assay in CHO-K1/ADORA2b/Gα15 cells (NECA-stimulated, HTRF). In kind it is cell-based. The note with it: for inhibition at 0.1 µM: compound at 100 nM, relative to ZM241385 at 1 μM, read-out: hA2B AR (%) inhibition of cAMP, 100 nM.

Entries after “also recorded” stand apart in the source; their conditions may differ.

Procedure for human A2B AR: In the cAMP assay, CHO-K1/ADORA2A/Gα15 cells expressing human A2A AR and CHO-K1/ADORA2b/Gα15 cells expressing human A2B AR were activated by 5′-(N-ethylcarboxamido)adenosine (NECA) and triggered the accumulation of intracellular cAMP concentration.
CHO-K1/ADORA2A/Gα15 cells expressing human A2A AR and CHO-K1/ADORA2b/Gα15 cells expressing human A2B AR were both constructed by Genscript Biotech Corporation. […] The test stock solutions were diluted with different gradients for use. The procedure was exemplified by the cAMP functional assay on the A2A receptor: 10,000 cells/well of CHO-K1/ADORA2A/Gα15 were seeded in a 384-well plate in 20 μl of assay buffer. […] Then, 10 μl of detection reagent (cAMP-d2 and anti-cAMP-Eu3+) was added into each well of the plate and incubated at room temperature for 1 h.

Usually fraction remaining stands for the share of the starting amount still present when the sample was taken. The term IC50 denotes the midpoint of a concentration-inhibition curve. One may read the inhibition as the relative decrease from the control value, in per cent. As a reminder, the melting point is the temperature, or range, at which the solid turns liquid. As to `Cc1c(C#N)cccc1-c1cc(-c2cn(Cc3cccc(C(N)=O)n3)nn2)nc(N)n1` [Compound 7i, 6-((4-(2-Amino-6-(3-cyano-2-methylphenyl)pyrimidin-4-yl)-1H-1,2,3-triazol-1-yl)methyl)picolinamide], the melting point is 151 to 152 °C. Also, the “IL-2 production (T cell activation)” value in the data set on PBMCs is “sufficient activities to stimulate IL-2 production; also recorded: better activity than AB928”. Also, in data set [1], the share remaining at 10 min, 0.49 µM worked out at 74.9%; the fraction remaining at 20 min, 0.49 µM worked out at 72.8%; the fraction remaining at 0.5 h, 0.49 µM worked out at 67.8%; the fraction remaining at 40 min, 0.49 µM was 61%. Moreover, in data set [1], the share remaining at 50 min, 0.49 µM came out at 53.8%; the fraction remaining at 1 h, 0.49 µM came to 50.7%; the half-life at 0.49 µM is 1.12 h; the “CLint(liver) Rat” value was found to be 1.08 mL/min/g. In addition, the IC50 at human A2B AR (CHO cells expressing hA2B AR, mean ± SEM, read-out: cAMP IC50 hA2B AR) turned out to be 14.1 ± 2.05 nM. The inhibition at 0.1 µM at human A2B AR (CHO-K1, mean ± SEM) stood at 103.3 ± 0.63%. Besides, the “fold more active than AB928 (cAMP IC50, A2B AR)” value on human A2B AR (ratio of cAMP IC50 values vs AB928) is listed as 1.8 fold.
For `Cc1c(C#N)cccc1-c1cc(-c2cn(Cc3cccc(C#N)n3)nn2)nc(N)n1` [Compound 7f, 6-((4-(2-Amino-6-(3-cyano-2-methylphenyl)pyrimidin-4-yl)-1H-1,2,3-triazol-1-yl)methyl)picolinonitrile], the melting point lay in the range of 147 to 148 °C. Moreover, the “IL-2 production (T cell activation)” value in the data set with PBMCs is on record as “sufficient activities to stimulate IL-2 production”. For the same compound, in data set [1], the share remaining at 10 min, 0.49 µM worked out at 84.7%; the fraction remaining at 20 min, 0.49 µM was determined as 88%; the amount remaining at 0.5 h, 0.49 µM turned out to be 77.2%; the fraction remaining at 40 min, 0.49 µM is 73.7%. For the same compound, in data set [1], the fraction remaining at 50 min, 0.49 µM amounted to 64.2%; the fraction remaining at 1 h, 0.49 µM was 64%; the half-life at 0.49 µM amounted to 1.56 h; the “CLint(liver) Rat” value was determined as 0.78 mL/min/g. Besides, the inhibition at 0.01 µM at human A2B AR (CHO-K1, compound at 10 nM, mean ± SEM, read-out: hA2B AR percentage of inhibition (I%) of cAMP, 10 nM (converted)) is 10.8%. Besides, at human A2B AR (CHO-K1, mean ± SEM), the inhibition at 0.1 µM was 102.6 ± 0.24%.
